Experimental data as given in US8138191B2, “Inhibitor compounds and cancer treatment methods” (Critical Outcome Technologies Inc., priority 2007, dated 2012).
Like-named read-outs stand apart in the source and are kept apart here.

Legend:
SHP77 [1] = assay: in vitro IC50 against cancer cell lines, SHP77; assay type: cell-based; conditions: Homo sapiens, 72 h; SHP77, SCLC, 3 days
Protocol: (§1) Briefly, cells were plated in plastic tissue culture plates and grown under standard conditions for each cell line, in carbon dioxide/oxygen atmosphere in plastic tissue culture plates, in the presence of COTI-2 or COTI-219 compounds at 35° C. for 3 days. Control cultures were treated with vehicle minus compound. Cells were counted after 3 days in culture and at a cell density of no more than 80%. The following cell lines, obtained from the National Cancer Institute, were tested: human SCLC cell lines DMS153, DMS114, SHP77; human NSCLC cell lines H226, A460, A560; human breast cancer cell lines T47D, MCF7; human colon cancer cell line HT29; and, human Leukemia cell lines K562, HL60.

T47D = assay: in vitro IC50 against cancer cell lines, T47D; assay type: cell-based; conditions: Homo sapiens, 72 h, Breast Cancer, 3 days
Protocol: as §1

K562 = assay: in vitro IC50 against cancer cell lines, K562; assay type: cell-based; conditions: Homo sapiens, 72 h; K562, Leukemia, 3 days
Protocol: as §1

DMS153 = assay: Resistance testing over 5 generations, DMS153; assay type: cell-based, human; conditions: DMS153, 5 generations
Protocol: (§2) In order to evaluate the induction of resistance in vitro, compounds according to the invention were tested in head to head comparisons against conventional therapeutic agents Cisplatin® and Taxotere®. The compound designated COTI-4 (which is the subject of Applicant's co-pending U.S. provisional patent application entitled “Composition and Method for Treatment” filed Dec. 26, 2007) was also tested. The structure for COTI-4 is:
(§3) IC50 values were obtained using methods known to persons skilled in the art with two different human SCLC cell lines (DMS153 and SHP77) obtained from the National Cancer Institute. […] The procedure was repeated for a total of 5 generations. Emerging resistance was identified by increasing IC50 values in successive generations.

SHP77 [2] = assay: Resistance testing over 5 generations, SHP77; assay type: cell-based, human; conditions: SHP77, 5 generations
Protocol: as §2, §3

H1975 = assay: CellTiter-Blue growth inhibition, single agents and combinations, H1975; assay type: cell-based; conditions: Homo sapiens, read-out: Mean IC50, single agent
Protocol: (§4) The stock concentration was further diluted to 1 mM and added to a drug plate. […] Following dilution, 2 μl of test agent was transferred to the corresponding wells of a cell-containing 96-well plate with 198 μl of growth media. Tarceva® (erlotinib) was supplied by LC Labs (Woburn, Mass.).
(§5) Viable cell numbers were quantified by the CellTiter-Blue® cell viability assay, which measures the conversion of the indicator dye (resazurin) to resorufin, an indicator of cell viability. Experiments were repeated at least twice with the same concentrations to determine growth inhibitory activity.
(§6) The CI, a numerical value calculated as described in equation A, also provides a quantitative measure of the extent of drug interaction. A CI of less than, equal to, and more than 1 indicates synergy, additivity, and antagonism, respectively. CI=(CAx/ICx,A)+(CB,x/ICx,B) Equation A: Where CA,x and CB,x, are the concentrations of drug A and drug B used in combination to achieve x % drug effect. ICx,A and ICx,B are the concentrations for single agents to achieve the same effect.

HCT-116 = assay: CellTiter-Blue growth inhibition, single agents and combinations, HCT-116; assay type: cell-based; conditions: Homo sapiens, read-out: Mean IC50, single agent
Protocol: as §4
as §5, with “Cells were grown to 70% confluency, trypsinized, counted, and seeded in 96-well flat-bottom plates at a final concentration of 2.5×10^3−5×10^3 cells/well (Day 0). […] Viable” for “Viable”
as §6

COLO-205 = assay: Tumor cell proliferation, single agents and combinations, COLO-205; assay type: cell-based, human; conditions: Homo sapiens
Protocol: (§7) The 3 cell lines were treated as follows:
(§8) Day 1: Cells were plated in 96-well flat bottom plates (VWR, Mississauga, ON, Canada) and allowed to adhere overnight.
(§9) All treated and control cells were, therefore, exposed to a 1% DMSO concentration plus the desired concentration of COTI-2.
as §6

HCT-15 = assay: Tumor cell proliferation, single agents and combinations, HCT-15; assay type: cell-based; conditions: Homo sapiens
Protocol: as §7, §8, §9, §6

SW620 = assay: Tumor cell proliferation, single agents and combinations, SW620; assay type: cell-based, human; conditions: Homo sapiens
Protocol: as §7, §8, §9, §6

[3] = Metabolic Stability (liver microsomes, rat, Sprague-Dawley); assay type: in vitro ADME; conditions: 1.0E−06 M, 60 min
Protocol: Metabolic stability was determined in human (mixed gender and pool of 50) monkey (male Cynomolgus, pool of 6 or more), dog male, beagle, pool of 4 or more) and rat (male Sprague-Dawley, pool of 100 or more) liver microsomes. […] Four reference substrates (1 μM) were tested simultaneously with COTI-2. […] Peak areas corresponding to COTI-2 were recorded by HPLC-MS/MS. Metabolic stability, expressed as percent of COTI-2 remaining, was calculated by comparing the peak area of COTI-2 at 60 min to time zero.

U87 = assay: IC50 human glioma/astrocytoma cell lines (alamar Blue), U87; conditions: Homo sapiens, U-87 MG
Protocol: (§10) Cell lines were obtained from the Human Tissue Culture Collection (ATCC), grown and maintained under ATCC-specified conditions, and tested to ensure viability and lack of contaminating mycoplasma and common viruses. […] A viability stain (alamar Blue) was added to cells after 4-7 days of drug exposure (approximately 4 doublings of control cells; maximum cell density in wells approximately 80%), and assayed for total cellular metabolic activity (a function of population density of live cells) by absorbance.

SNB-19 = assay: IC50 human glioma/astrocytoma cell lines (alamar Blue), SNB-19; conditions: Homo sapiens, SNB-19
Protocol: as §10

SF-295 = assay: IC50 human glioma/astrocytoma cell lines (alamar Blue), SF-295
Protocol: as §10

[4] = system: Akt kinase activity in SHP-77 cells; assay: Akt kinase activity (immunoprecipitated Akt, GSK-3 phosphorylation), SHP-77; conditions: SHP-77, 250 nM, 2-24 hrs
Protocol: Briefly, after lysing the cells in a protein non-denaturing buffer, Akt is immunoprecipitated with immobilized antibody. The kinase reaction catalyzed by immunoprecipitated Akt consists of in vitro phosphorylation of supplemented recombinant GSK-3, a natural in vivo Akt substrate, in the presence of added ATP. The amount of phosphorylated GSK-3 is determined by western blot analysis with phospho-GSK-3αβ(Ser21/9) antibody.
Briefly, after lysing the cells in a protein non-denaturing buffer, AKT was immunoprecipitated with immobilized antibody. The kinase reaction catalyzed by immunoprecipitated AKT consists of in vitro phosphorylation of supplemented recombinant GSK-3, a natural in vivo AKT substrate, in the presence of added ATP. The amount of phosphorylated GSK-3 was determined by western blot analysis with phospho-GSK-3αβ(Ser21/9) antibody.

SMILES | IC50 (SHP77 [1]) | IC50 (T47D) | IC50 (K562) | emerging resistance: ratio of IC50 to IC50 of parental generation (DMS153) | emerging resistance: ratio of IC50 to IC50 of parental generation (SHP77 [2]) | IC50 (H1975; NCI-H1975, 72 h) | IC50 (HCT-116; HCT-116, 72 h) | IC50 (COLO-205; COLO 205, read-out: Mean IC50, single agent) | IC50 (HCT-15; HCT-15, read-out: Mean IC50, single agent) | IC50 (SW620; SW-620, read-out: Mean IC50, single agent) | Mean Parent Remaining [3] | IC50 (U87) | IC50 (SNB-19) | IC50 (SF-295) | Akt kinase activity [4] | IC50 (H1975; NCI-H1975, H1975, NSCLC, EGFR - MUT, 72 h) | IC50 (HCT-116; HCT-116, Colon, KRAS - MUT, 72 h) | IC50 (COLO-205; COLO-205, Colon, KRAS - WT, read-out: Mean IC50, single agent) | IC50 (HCT-15; HCT-15, Colon, KRAS - MUT, read-out: Mean IC50, single agent) | IC50 (SW620; SW-620, SW620, Colon, KRAS - MUT, read-out: Mean IC50, single agent)
S=C(N/N=C1/CCCc2cccnc21)N1CCN(c2ccccn2)CC1 [COTI-2] | 0.156 µM | 0.221 µM | 0.176 µM | less than 1 | less than 1 | 0.01 µM | 0.0036 µM | 0.0047 µM | 0.0083 µM | 0.165 µM | 1% | 0.048 µM | 0.008 µM | 0.184 µM | more gradual decrease | – | – | – | – | –
CN1CCN(C(=S)NN=C2c3ncccc3-c3cccnc32)CC1 [COTI-219] | 0.787 µM | 0.367 µM | 0.222 µM | little to no emerging resistance | little to no emerging resistance | – | – | – | – | – | – | 2.37 µM | 1.99 µM | 2.39 µM | – | 0.1 µM | 0.0087 µM | 0.0043 µM | 0.0051 µM | 0.0074 µM
